Reference: US6686343B1, “Triazolopurine derivatives, pharmaceutical compositions containing the derivatives, and adenosine A3 receptor affinitive agents” (Otsuka Pharmaceutical Factory, Inc., priority 1999, dated 2004)

melting point | SMILES
≥ 280 °C | FC(F)(F)c1nc2nc[nH]c2c2nc(-c3ccc(-c4ccccc4)cc3)nn12 [Example 47, 8-(4-biphenylyl)-5-trifluoromethyl-1H-1,2,4-triazolo[5,1-i]purine]
≥ 280 °C | COCc1nc2nc[nH]c2c2nc(-c3ccc(-c4ccccc4)cc3)nn12 [Example 2, 8-(4-biphenylyl)-5-methoxymethyl-1H-1,2,4-triazolo[5,1-i]purine]
264 to 266 °C | CCSCc1nc2nc[nH]c2c2nc(-c3ccc(-c4ccccc4)cc3)nn12 [Example 49, 8-(4-biphenylyl)-5-ethylthiomethyl-1H-1,2,4-triazolo[5,1-i]purine]
247 to 249 °C | CCOCc1nc2nc[nH]c2c2nc(-c3ccccc3)nn12 [Example 11, 5-ethoxymethyl-8-phenyl-1H-1,2,4-triazolo[5,1-i]purine]
227 to 230 °C (dec.) | CN(C)CCCc1nc2nc[nH]c2c2nc(-c3ccc(-c4ccccc4)cc3)nn12 [Example 55, 8-(4-biphenylyl)-5-(3-dimethylaminopropyl)-1H-1,2,4-triazolo[5,1-i]purine]
≥ 280 °C | c1ccc(-c2ccc(-c3nc4c5[nH]cnc5nc(C5CCCC5)n4n3)cc2)cc1 [Example 46, 8-(4-biphenylyl)-5-cyclopentyl-1H-1,2,4-triazolo[5,1-i]purine]
≥ 246 °C (dec.) | C[S+]([O-])Cc1nc2nc[nH]c2c2nc(-c3ccc(-c4ccccc4)cc3)nn12 (centres unmarked) [Example 60, 8-(4-biphenylyl)-5-methylsulfinylmethyl-1H-1,2,4-triazolo[5,1-i]purine]
≥ 162 °C (dec.) | C[S+]([O-])CCc1nc2nc[nH]c2c2nc(-c3ccc(C(C)(C)C)cc3)nn12 (centres unmarked) [Example 39, 8-(4-t-butylphenyl)-5-(2-methylsulfinylethyl)-1H-1,2,4-triazolo[5,1-i]purine]
228 to 230 °C | COC(=O)CCCc1nc2nc[nH]c2c2nc(-c3ccccc3)nn12 [Example 18, 5-(3-methoxycarbonylpropyl)-8-phenyl-1H-1,2,4-triazolo[5,1-i]purine]
≥ 255 °C (dec.) | CSCCc1nc2nc[nH]c2c2nc(-c3ccc(C(F)(F)F)cc3)nn12 [Example 27, 5-(2-methylthioethyl)-8-(4-trifluoromethylphenyl)-1H-1,2,4-triazolo[5,1-i]purine]
241 to 243 °C | CCOC(=O)CCCCc1nc2nc[nH]c2c2nc(-c3ccc(-c4ccccc4)cc3)nn12 [Example 22, 8-(4-biphenylyl)-5-(4-ethoxycarbonylbutyl)-1H-1,2,4-triazolo[5,1-i]purine]

Further lines, the compound ahead of its results:

SMILES | melting point
CCOCc1nc2nc[nH]c2c2nc(-c3ccc(C(F)(F)F)cc3)nn12 [Example 25, 5-ethoxymethyl-8-(4-trifluoromethylphenyl)-1H-1,2,4-triazolo[5,1-i]purine] | ≥ 280 °C
CCOCc1nc2nc[nH]c2c2nc(-c3cc(OC)c(OC)c(OC)c3)nn12 [Example 5, 5-ethoxymethyl-8-(3,4,5-trimethoxyphenyl)-1H-1,2,4-triazolo[5,1-i]purine] | 254 to 255.5 °C
COCCc1nc2nc[nH]c2c2nc(-c3ccc(C(F)(F)F)cc3)nn12 [Example 26, 5-(2-methoxyethyl)-8-(4-trifluoromethylphenyl)-1H-1,2,4-triazolo[5,1-i]purine] | ≥ 256 °C (dec.)
CCCOc1ccc(-c2nc3c4[nH]cnc4nc(COCC)n3n2)cc1 [Example 8, 5-ethoxymethyl-8-(4-n-propoxyphenyl)-1H-1,2,4-triazolo[5,1-i]purine] | 262 to 263 °C
CSCCc1nc2nc[nH]c2c2nc(-c3ccc(C(C)(C)C)cc3)nn12 [Example 17, 8-(4-t-butylphenyl)-5-(2-methylthioethyl)-1H-1,2,4-triazolo[5,1-i]purine] | 229 to 231 °C
CCCOc1ccc(-c2nc3c4[nH]cnc4nc(CCOC)n3n2)cc1 [Example 10, 5-(2-methoxyethyl)-8-(4-n-propoxyphenyl)-1H-1,2,4-triazolo[5,1-i]purine] | 231.5 to 232.5 °C
CCOP(=O)(Cc1nc2nc[nH]c2c2nc(-c3ccc(C(C)(C)C)cc3)nn12)OCC | 162 to 166 °C
CC(C)(C)c1ccc(-c2nc3c4[nH]cnc4nc(CCS(C)(=O)=O)n3n2)cc1 [Example 43, 8-(4-t-butylphenyl)-5-(2-methylsulfonylethyl)-1H-1,2,4-triazolo[5,1-i]purine] | ≥ 201 °C (dec.)
CC(C)(C)c1ccc(-c2nc3c4[nH]cnc4nc(CCCC(=O)O)n3n2)cc1 [Example 35, 8-(4-t-butylphenyl)-5-(3-carboxypropyl)-1H-1,2,4-triazolo[5,1-i]purine] | ≥ 280 °C
